Test results published in patent publication US20190002988A1, “METHOD OF USING A RET FUSION GENE AS A BIOMARKER TO SELECT NON SMALL CELL LUNG CANCER (NSCLC) AND THYROID CANCER PATIENTS FOR A CANCER TREATMENT” (Boehringer Ingelheim International GmbH, priority 2015, published 2019).

Tests used:
[1] = system: EGFR and ALK wild-type advanced NSCLC with CCDC6-RET fusion gene; assay: Phase I case study, docetaxel plus nintedanib in a patient with CCDC6-RET fusion NSCLC; type: in vivo, human; settings: one patient
From the text: The present study is a case study of long-term efficacy of docetaxel plus nintedanib (BIBF 1120; 3-Z-[1-(4-(N-((4-methyl-piperazin-1-yl)-methylcarbonyl)-N-methyl-amino)-anilino)-1-phenyl-methylene]-6-methoxycarbonyl-2-indolinone) over 33 months in a never smoking person with EGFR and ALK wild-type non-small cell lung cancer NSCLC.
The present case was a never smoking person with EGFR and ALK wild-type advanced NSCLC. After failure of first-line platinum-based chemotherapy, the patient was enrolled in a phase I dose-escalation study of nintedanib combined with docetaxel for Japanese patients with advanced NSCLC on June, 2010, with oral administration of nintedanib 150 mg twice daily plus docetaxel 75 mg/m^2 every 3 weeks (Okamoto I, Kaneda H, Satoh T et al. Phase I safety, pharmacokinetic, and biomarker study of BIBF 1120, an oral triple tyrosine kinase inhibitor in patients with advanced solid tumors. Mol Cancer Ther 2010; 9: 2825-2833.). […] A total of 48 treatment cycles (26 cycles of therapy with nintedanib alone) had been administered over 33 months until disease progression on March, 2013 (FIG. 1). To identify mutations which are highly susceptible to therapy with nintedanib, next-generation sequencing panels were applied that cover both mutational hotspots in 22 genes related to lung and colon tumorigenesis using DNA (FIG. 4) as well as 72 major variants of ALK, RET, ROS1, and NTRK1 fusion transcripts using RNA extracted from non-small lung tissues obtained by transbronchial biopsy (FIG. 5). Multiplex genetic testing has identified CCDC6-RET fusion gene in tissue specimens for lung cancer diagnosis (FIG. 2), and no other actionable mutations were identified.

[2] = system: vascular endothelial growth factor receptors (VEGFRs); assay: preclinical studies, inhibition of VEGFRs; type: biochemical
[3] = system: fibroblast growth factor receptors (FGFRs); assay: preclinical studies, inhibition of FGFRs; type: biochemical
[4] = preclinical studies, oral bioavailability; type: in vivo
[5] = system: tumor vessel density; assay: tumor vessel density; settings: in vivo
[6] = target: VEGFR2 (Homo sapiens, UniProt P35968); settings: in vitro; Hilberg et al. 2008; cited from earlier work
Sequence of VEGFR2 (P35968 20-1356, species assumed): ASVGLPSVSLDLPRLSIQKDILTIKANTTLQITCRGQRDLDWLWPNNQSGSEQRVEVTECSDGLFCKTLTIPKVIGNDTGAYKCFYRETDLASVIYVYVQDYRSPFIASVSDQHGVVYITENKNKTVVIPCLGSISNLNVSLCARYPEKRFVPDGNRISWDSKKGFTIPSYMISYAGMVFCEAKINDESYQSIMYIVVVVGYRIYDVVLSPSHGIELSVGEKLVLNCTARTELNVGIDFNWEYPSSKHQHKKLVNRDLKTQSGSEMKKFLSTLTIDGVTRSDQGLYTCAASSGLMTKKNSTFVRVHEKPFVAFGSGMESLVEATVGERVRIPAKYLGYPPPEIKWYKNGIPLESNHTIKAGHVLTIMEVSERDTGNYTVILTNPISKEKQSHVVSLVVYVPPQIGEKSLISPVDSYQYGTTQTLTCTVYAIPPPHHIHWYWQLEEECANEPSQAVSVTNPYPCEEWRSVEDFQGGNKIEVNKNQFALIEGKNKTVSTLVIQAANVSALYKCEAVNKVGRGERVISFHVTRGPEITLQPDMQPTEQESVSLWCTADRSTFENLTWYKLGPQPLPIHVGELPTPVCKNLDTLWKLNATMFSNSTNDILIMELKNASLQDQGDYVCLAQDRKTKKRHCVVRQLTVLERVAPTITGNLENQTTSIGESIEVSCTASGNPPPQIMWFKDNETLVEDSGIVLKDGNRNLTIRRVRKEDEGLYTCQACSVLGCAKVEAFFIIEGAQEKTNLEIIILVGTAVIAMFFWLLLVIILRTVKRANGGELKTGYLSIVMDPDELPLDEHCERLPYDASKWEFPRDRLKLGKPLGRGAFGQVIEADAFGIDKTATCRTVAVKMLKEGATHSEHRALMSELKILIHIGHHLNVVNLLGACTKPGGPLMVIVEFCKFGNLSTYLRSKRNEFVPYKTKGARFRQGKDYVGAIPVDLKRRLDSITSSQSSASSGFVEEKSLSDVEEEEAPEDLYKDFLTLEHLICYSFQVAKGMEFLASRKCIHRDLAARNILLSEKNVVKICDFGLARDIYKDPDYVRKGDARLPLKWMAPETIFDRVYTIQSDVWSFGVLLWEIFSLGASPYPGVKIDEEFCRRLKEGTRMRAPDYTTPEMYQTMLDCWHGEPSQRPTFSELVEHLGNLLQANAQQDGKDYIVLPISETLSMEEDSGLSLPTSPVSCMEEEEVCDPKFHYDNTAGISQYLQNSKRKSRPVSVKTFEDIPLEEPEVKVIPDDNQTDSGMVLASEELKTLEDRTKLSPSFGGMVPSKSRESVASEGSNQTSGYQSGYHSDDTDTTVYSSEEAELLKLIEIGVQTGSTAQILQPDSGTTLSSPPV

[7] = system: xenograft models of human solid tumors; settings: Hilberg et al. 2008; cited from earlier work
[8] = system: endothelial- and smooth muscle cells and pericytes; assay: signalling in endothelial- and smooth muscle cells and pericytes; type: cell-based
[9] = system: advanced NSCLC; settings: combination with docetaxel; predefined patients with adenocarcinoma tumor histology; Reck et al. 2014; cited from earlier work
[10] = system: platelet-derived growth factor receptors (PDGFRs); assay: preclinical studies, inhibition of PDGFRs; type: biochemical

| SMILES | adverse events leading to discontinuation ([1]; docetaxel discontinued after 22 cycles) | inhibition of VEGFRs [2] | inhibition of FGFRs [3] | oral bioavailability [4] | treatment time until disease progression ([1]; 48 treatment cycles, 26 of them nintedanib alone after docetaxel was stopped) | response ([1]; nintedanib 150 mg twice daily plus docetaxel 75 mg/m^2 every 3 weeks) | tumor vessel density [5] | blockade of VEGFR2 [6] | tumor growth [7] | signalling in endothelial- and smooth muscle cells and pericytes [8] | overall survival compared with docetaxel alone [9] | inhibition of PDGFRs [10] |
| --- | --- | --- | --- | --- | --- | --- | --- | --- | --- | --- | --- | --- |
| CC(=O)O[C@@]12CO[C@@H]1C[C@H](O)[C@@]1(C)C(=O)[C@H](O)C3=C(C)[C@@H](OC(=O)[C@H](O)[C@@H](NC(=O)OC(C)(C)C)c4ccccc4)C[C@@](O)([C@@H](OC(=O)c4ccccc4)[C@H]21)C3(C)C [docetaxel, reference compound] | lower extremity edema and fatigue |  |  |  |  |  |  |  |  |  |  |  |
| COC(=O)c1ccc2c(c1)NC(=O)/C2=C(\Nc1ccc(N(C)C(=O)CN2CCN(C)CC2)cc1)c1ccccc1 [nintedanib, 3-Z-[1-(4-(N-((4-methyl-piperazin-1-yl)-methylcarbonyl)-N-methyl-amino)-anilino)-1-phenyl-methylene]-6-methoxycarbonyl-2-indolinone] |  | highly potent | highly potent | orally bioavailable | 33 months | radiographic response | reduces tumor vessel density | sustained blockade | delay or arrest of tumor growth | inhibits signalling | significantly and clinically meaningful improved overall survival | highly potent |
